{"source": "patent US5334728A", "about": "(The Trustees of The University of Pennsylvania, priority 1992, dated 1994)", "key": {"[1]": {"biological_target": "T1, dopamine D-2 receptor (Rattus norvegicus, UniProt P61169)", "T1 construct": "Striatal tissues were excised, pooled and homogenized in 100 volumes (w/v) of ice-cold Tris-HCl buffer; from tissue; host or cells: rat striatum (male Sprague-Dawley), twice-centrifuged membrane homogenate", "T1 sequence (P61169 whole entry)": "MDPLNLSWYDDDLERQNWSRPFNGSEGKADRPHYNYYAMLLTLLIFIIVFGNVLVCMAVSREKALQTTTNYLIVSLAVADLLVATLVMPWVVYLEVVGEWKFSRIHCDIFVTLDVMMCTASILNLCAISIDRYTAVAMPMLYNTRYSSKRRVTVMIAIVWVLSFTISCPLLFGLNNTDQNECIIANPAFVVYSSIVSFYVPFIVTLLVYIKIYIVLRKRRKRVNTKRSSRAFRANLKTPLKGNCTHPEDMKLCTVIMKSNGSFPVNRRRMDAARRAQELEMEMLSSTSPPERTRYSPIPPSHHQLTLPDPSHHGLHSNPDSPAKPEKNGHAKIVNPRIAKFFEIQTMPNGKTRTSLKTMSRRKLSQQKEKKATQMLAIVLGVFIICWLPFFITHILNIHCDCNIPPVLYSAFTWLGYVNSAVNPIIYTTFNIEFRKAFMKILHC", "assay": "Saturation binding of [^125 I]IBF to rat striatal homogenate in vitro", "protocol": "(§1) Male Sprague-Dawley rats (200-250 g) were decapitated, and the brains were removed and placed in ice. Striatal tissues were excised, pooled and homogenized in 100 volumes (w/v) of ice-cold Tris-HCl buffer (50 mM), pH 7.4. The homogenates were centrifuged at 20,000× g for 20 min. The resultant pellets were rehomogenized in the same buffer and centrifuged again. The final pellets were resuspended in assay buffer containing: 50 mM Tris buffer pH 7.4, 120 mM NaCl, 5 mM KCl, 2 mM CaCl2 and 1 mM MgCl2 and kept at -20° C. for the following binding assay.\n(§2) The binding assays were performed by incubating 50 μl of tissue preparations containing 40-60 μg of protein with appropriate amounts of l-125 labeled ligand and competitors in a total volume of 0.2 ml of the assay buffer. After an incubation period of 15 min at 37° C. (with stirring), the samples were rapidly filtered in the cell harvester (Brandel M-24R) under vacuum through Whatman GF/B glass fiber filters pretreated with 0.2% protamine base and washed with 3×5 ml of cold (4° C.) 50 mM Tris-HCl buffer, pH 7.4. […] The filters were counted in a gamma counter (Beckman 5500) at an efficiency of 70%."}, "[2]": {"biological_target": "T1, dopamine D-2 receptor", "assay": "Competition binding using [^125 I]IBF, rat striatal membranes", "protocol": "*0.15-0.30 nM [^125 I]IBF was incubated in the presence of the\nindicated compounds in 7-11 concentrations and of membrane preparation\nfrom rat striatum. Each value represents the mean ± SEM of three to\nas §1, §2"}, "[3]": {"assay": "Biodistribution in rats after IV injection", "format": "in vivo, rat", "protocol": "Male Sprague Dawley rats (225-300 g), which were allowed free access to food and water, were used for in vivo biodistribution study. While under halothane anesthesia, 0.2 ml of a saline solution containing [^125 l]IBF, 21, (8-10 μCi) was injected directly into the femoral vein, and the rats were sacrificed at various time points postinjection by cardiac excision under halothane anesthesia. The organs of interest were removed, weighed and the radioactivity was counted using a Beckman gamma automatic counter (Model 4000). The percent dose per organ was calculated by a comparison of the tissue counts to suitably diluted aliquots of the injected material. Total activities of blood and muscle were calculated assuming that they are 7% and 40% of total body weight, respectively."}, "[4]": {"tested_on": "CNS D-2 dopamine receptors", "assay": "Regional brain distribution in rats after iv injection", "format": "in vivo", "details": "rat; for striatum/cerebellum (ST/CB) ratio: % dose/gram ratio", "text": "FIG. 2 is a bar graph showing ratios (based on % dose/gram) of regional cerebral uptake of [^125 I]IBF (CX: cortex, ST: striatum, CB: cerebellum, HP: hippocampus).\n(§3) (See FIG. 2). This type of profound increase in target to nontarget ratio versus time was not observed for the other two regions (hippocampus and cortex) (FIG. 2). […] The data have been further confirmed by an in vivo imaging study of a monkey.\nRegional brain distribution in rats was obtained after an iv injection of [^125 l]IBF, 21. By dissecting, weighing and counting samples from different brain regions (cortex, striatum, hippocampus and cerebellum), % dose/gram of samples was calculated by comparing the sample counts with the counts of the diluted initial dose. The uptake ratio of each region was obtained by dividing % dose/gram of each region with that ot the cerebellum."}, "[5]": {"tested_on": "CNS D-2 dopamine receptors", "assay": "Ex vivo autoradiography (preliminary)", "format": "in vivo", "details": "preliminary study", "text": "as §3"}, "[6]": {"tested_on": "CNS D-2 dopamine receptors", "assay": "In vivo planar imaging of a monkey", "details": "planar images", "text": "as §3"}, "[7]": {"details": "2 min, IV, average of 3 rats ± SD"}, "[8]": {"details": "15 min, IV, average of 3 rats ± SD"}, "[9]": {"details": "30 min, IV, average of 3 rats ± SD"}, "[10]": {"details": "60 min, IV, average of 3 rats ± SD"}, "[11]": {"details": "120 min, IV, average of 3 rats ± SD"}}, "note": "Several values for one entry are separate records, joined by “and”; a condition that tells them apart may be missing. Equal values may be shown once.", "data": [{"smiles": "CCN1CCC[C@H]1CNC(=O)c1cc([125I])cc2c1OCC2", "note": "[[^125 I]IBF]", "values": [{"measurement": "specific binding saturability", "setting": "[1]", "value": "saturable"}, {"measurement": "Kd", "setting": "[1]; rat striatal homogenate in vitro, read-out: Kd, specific binding", "value": "106 ± 15", "unit": "pM"}, {"measurement": "nonspecific binding", "setting": "[1]; saturation curve, FIG. 1", "value": "extremely low nonspecific binding"}, {"measurement": "nonspecific binding at Kd", "setting": "[1]; saturation curve, FIG. 1", "value": 5, "unit": "%"}, {"measurement": "selectivity of binding to the dopamine D-2 receptor", "setting": "[2]", "value": "binds specifically and selectively to the dopamine D-2 receptor"}, {"measurement": "Blood uptake", "setting": "[3]; [7]", "value": "3.50 ± 0.22", "unit": "% Dose/Organ"}, {"measurement": "Brain uptake", "setting": "[3]; [7]", "value": "0.98 ± 0.15 % Dose/Organ and 0.98 % Dose/Organ"}, {"measurement": "Brain/Blood ratio", "setting": "[3]; [7]", "value": "2.64 ± 0.32", "unit": "% dose/gram ratio"}, {"measurement": "Heart uptake", "setting": "[3]; [7]", "value": "0.81 ± 0.25", "unit": "% Dose/Organ"}, {"measurement": "Kidney uptake", "setting": "[3]; [7]", "value": "7.58 ± 0.66", "unit": "% Dose/Organ"}, {"measurement": "Liver uptake", "setting": "[3]; [7]", "value": "16.32 ± 4.00", "unit": "% Dose/Organ"}, {"measurement": "Lung uptake", "setting": "[3]; [7]", "value": "6.14 ± 1.19 % Dose/Organ and 6.14 % Dose/Organ"}, {"measurement": "Muscle uptake", "setting": "[3]; [7]", "value": "11.25 ± 2.62", "unit": "% Dose/Organ"}, {"measurement": "Skin uptake", "setting": "[3]; [7]", "value": "8.54 ± 1.21", "unit": "% Dose/Organ"}, {"measurement": "Spleen uptake", "setting": "[3]; [7]", "value": "0.96 ± 0.08", "unit": "% Dose/Organ"}, {"measurement": "Thyroid uptake", "setting": "[3]; [7]", "value": "0.06 ± 0.02", "unit": "% Dose/Organ"}, {"measurement": "Blood uptake", "setting": "[3]; [8]", "value": "1.80 ± 0.31", "unit": "% Dose/Organ"}, {"measurement": "Brain uptake", "setting": "[3]; [8]", "value": "0.54 ± 0.06", "unit": "% Dose/Organ"}, {"measurement": "Brain/Blood ratio", "setting": "[3]; [8]", "value": "3.01 ± 0.91", "unit": "% dose/gram ratio"}, {"measurement": "Heart uptake", "setting": "[3]; [8]", "value": "0.20 ± 0.03", "unit": "% Dose/Organ"}, {"measurement": "Kidney uptake", "setting": "[3]; [8]", "value": "2.92 ± 0.30", "unit": "% Dose/Organ"}, {"measurement": "Liver uptake", "setting": "[3]; [8]", "value": "16.16 ± 7.54", "unit": "% Dose/Organ"}, {"measurement": "Lung uptake", "setting": "[3]; [8]", "value": "1.85 ± 0.33", "unit": "% Dose/Organ"}, {"measurement": "Muscle uptake", "setting": "[3]; [8]", "value": "14.36 ± 1.29", "unit": "% Dose/Organ"}, {"measurement": "Skin uptake", "setting": "[3]; [8]", "value": "8.46 ± 0.56", "unit": "% Dose/Organ"}, {"measurement": "Spleen uptake", "setting": "[3]; [8]", "value": "0.58 ± 0.08", "unit": "% Dose/Organ"}, {"measurement": "Thyroid uptake", "setting": "[3]; [8]", "value": "0.03 ± 0.004", "unit": "% Dose/Organ"}, {"measurement": "Blood uptake", "setting": "[3]; [9]", "value": "1.26 ± 0.10", "unit": "% Dose/Organ"}, {"measurement": "Brain uptake", "setting": "[3]; [9]", "value": "0.30 ± 0.05", "unit": "% Dose/Organ"}, {"measurement": "Brain/Blood ratio", "setting": "[3]; [9]", "value": "2.26 ± 0.33", "unit": "% dose/gram ratio"}, {"measurement": "Heart uptake", "setting": "[3]; [9]", "value": "0.11 ± 0.01", "unit": "% Dose/Organ"}, {"measurement": "Kidney uptake", "setting": "[3]; [9]", "value": "1.58 ± 0.46", "unit": "% Dose/Organ"}, {"measurement": "Liver uptake", "setting": "[3]; [9]", "value": "11.59 ± 0.93", "unit": "% Dose/Organ"}, {"measurement": "Lung uptake", "setting": "[3]; [9]", "value": "0.82 ± 0.08 % Dose/Organ and 0.82 % Dose/Organ"}, {"measurement": "Muscle uptake", "setting": "[3]; [9]", "value": "9.00 ± 1.66", "unit": "% Dose/Organ"}, {"measurement": "Skin uptake", "setting": "[3]; [9]", "value": "5.34 ± 0.17", "unit": "% Dose/Organ"}, {"measurement": "Spleen uptake", "setting": "[3]; [9]", "value": "0.31 ± 0.03", "unit": "% Dose/Organ"}, {"measurement": "Thyroid uptake", "setting": "[3]; [9]", "value": "0.02 ± 0.004", "unit": "% Dose/Organ"}, {"measurement": "Blood uptake", "setting": "[3]; [10]", "value": "0.98 ± 0.11", "unit": "% Dose/Organ"}, {"measurement": "Brain uptake", "setting": "[3]; [10]", "value": "0.17 ± 0.02 % Dose/Organ and 0.17 % Dose/Organ"}, {"measurement": "Brain/Blood ratio", "setting": "[3]; [10]", "value": "1.90 ± 0.29", "unit": "% dose/gram ratio"}, {"measurement": "Heart uptake", "setting": "[3]; [10]", "value": "0.05 ± 0.002", "unit": "% Dose/Organ"}, {"measurement": "Kidney uptake", "setting": "[3]; [10]", "value": "1.01 ± 0.01", "unit": "% Dose/Organ"}, {"measurement": "Liver uptake", "setting": "[3]; [10]", "value": "9.84 ± 1.50", "unit": "% Dose/Organ"}, {"measurement": "Lung uptake", "setting": "[3]; [10]", "value": "0.37 ± 0.10", "unit": "% Dose/Organ"}, {"measurement": "Muscle uptake", "setting": "[3]; [10]", "value": "4.97 ± 0.56", "unit": "% Dose/Organ"}, {"measurement": "Skin uptake", "setting": "[3]; [10]", "value": "2.38 ± 0.17", "unit": "% Dose/Organ"}, {"measurement": "Spleen uptake", "setting": "[3]; [10]", "value": "0.09 ± 0.01", "unit": "% Dose/Organ"}, {"measurement": "Thyroid uptake", "setting": "[3]; [10]", "value": "0.02 ± 0.01 % Dose/Organ and 0.02 % Dose/Organ"}, {"measurement": "Blood uptake", "setting": "[3]; [11]", "value": "0.53 ± 0.02", "unit": "% Dose/Organ"}, {"measurement": "Brain uptake", "setting": "[3]; [11]", "value": "0.07 ± 0.006", "unit": "% Dose/Organ"}, {"measurement": "Brain/Blood ratio", "setting": "[3]; [11]", "value": "1.53 ± 0.12", "unit": "% dose/gram ratio"}, {"measurement": "Heart uptake", "setting": "[3]; [11]", "value": "0.02 ± 0.001", "unit": "% Dose/Organ"}, {"measurement": "Kidney uptake", "setting": "[3]; [11]", "value": "0.68 ± 0.32", "unit": "% Dose/Organ"}, {"measurement": "Liver uptake", "setting": "[3]; [11]", "value": "3.95 ± 0.31", "unit": "% Dose/Organ"}, {"measurement": "Muscle uptake", "setting": "[3]; [11]", "value": "2.30 ± 0.22", "unit": "% Dose/Organ"}, {"measurement": "Skin uptake", "setting": "[3]; [11]", "value": "1.18 ± 0.18", "unit": "% Dose/Organ"}, {"measurement": "Spleen uptake", "setting": "[3]; [11]", "value": "0.03 ± 0.007", "unit": "% Dose/Organ"}, {"measurement": "Thyroid uptake", "setting": "[3]; [11]", "value": "0.08 ± 0.03", "unit": "% Dose/Organ"}, {"measurement": "in vivo deiodination", "setting": "[3]; from thyroid uptake at one hour postinjection", "value": "little or no in vivo deiodination"}, {"measurement": "in vivo stability compared with [^125 I]IBZM", "setting": "[3]; rat, in vivo", "value": "better in vivo stability"}, {"measurement": "lung clearance", "setting": "[3]; rats", "value": "rapidly cleared"}, {"measurement": "Liver uptake", "setting": "[3]; rats, first hour to two hours postinjection", "value": "remained high throughout the first hour and gradually declined at two hours postinjection"}, {"measurement": "Brain uptake", "setting": "[3]; rats, intravenous", "value": "good brain uptake in rats"}, {"measurement": "striatum/cerebellum (ST/CB) ratio", "setting": "[4]; 2 min", "value": 2.0}, {"measurement": "striatum/cerebellum (ST/CB) ratio", "setting": "[4]; 15 min", "value": 3.8}, {"measurement": "striatum/cerebellum (ST/CB) ratio", "setting": "[4]; 30 min", "value": 6.2}, {"measurement": "striatum/cerebellum (ST/CB) ratio", "setting": "[4]; 60 min", "value": 18}, {"measurement": "striatum/cerebellum (ST/CB) ratio", "setting": "[4]; 120 min", "value": 48}, {"measurement": "increase in target to nontarget ratio versus time, hippocampus and cortex", "setting": "[4]; hippocampus and cortex", "value": "not observed"}, {"measurement": "retention in the striatum", "setting": "[4]", "value": "prolonged retention"}, {"measurement": "striatal uptake and cerebellar activity", "setting": "[5]", "value": "high striatal uptake and low cerebellar activity"}, {"measurement": "uptake and retention in the basal ganglia", "setting": "[6]", "value": "high uptake and retention in the basal ganglia"}]}]}
